Source: patent US7655392B2, “Quenching methods for red blood cell inactivation process” (priority 2004, dated 2010)
Marks after values point to notes of the source that are not given here.

Test system: red blood cells
Assay: Gel card agglutination with rabbit anti-acridine sera
Type: cell-based
Procedure: The reduction in modification of red blood cells in the methods of the present invention can be evaluated by several assays. In one assay, rabbit polyclonal sera that is reactive with acridine is produced by injecting New Zealand White rabbits with an acridine compound conjugated to KLH.
This is conjugated to KLH by adding 10 μL of the compound (10 mM in de-ionized water) to 990 μL of a buffered solution of KLH (10 mg/mL in 50 mM Phosphate, 150 mM NaCl, PBS pH=7.2 with proprietary stabilizer, Pierce Cat # 77600) and incubating at room temperature for over 20 hours. Following this incubaton, the conjugated KLH is isolated from the unreacted S-197 and S-197 by-products by passing through a desalting column (e.g. D-salt columns, Pierce) and eluting in PBS buffer. The colored fractions of the solutions are then combined and the KLH conjugates are characterized by the ratio of absorbance at 210 and 410 nm. The acridine-KLH conjugate solutions are mixed with Complete Freund's Adjuvant for intramuscular injection into the rabbits at multiple sites to immunize the rabbits. […] The resulting solution can be assayed for agglutination by passing through a Buffer Gel Card (Micro Typing Systems, Pompano Beach, Fla.). The gel cards are designed to allow non-agglutinated red blood cells to pass through, while cells agglutinated by reaction with the rabbit sera and cross reacting with the anti-rabbit antibody will remain at the top of the gel. The cards are scored as 0, 1+, 2+, 3+, or 4+, where 0 indicates all cells are intact and are at the bottom of the gel, while 4+ indicates complete agglutination, with all cells at the top of the gel.
In these, the appropriate amount of 600 mM stock was added, mixed with an appropriate volume of 8% dextrose to provide the same volume addition to each RBC sample where in one study, with varied glutathione concentrations, the pH was measured after adding glutathione and after adding PIC-1. […] Similar samples were also assessed for the inactivation of S. epidermidis. […] For gel card analysis, after incubation, the RBC were washed in BBS and were diluted in BBS to a final hematocrit of 4%. A 25 μL aliquot of each was mixed with 15 μL of rabbit polyclonal anti-acridine sera diluted either 1:4 or 1:100 in BBS and the mixture was incubated at 37° C. for 30 minutes. The cells were subsequently washed with 1.5 mL BBS. […]
Heterophile antibodies are naturally occurring antibodies that recognize RBC from another species in a non-specific fashion. […] All samples were mixed with quencher first, then PIC-1 at 0.2 mM.
The standard condition was included, i.e. 0.2 mM PIC-1 and 2 mM acidic glutathione added together.

Measured: Gel card score

O=C(CCNc1c2ccccc2nc2ccccc12)OCCN(CCCl)CCCl [PIC-1]
3: Table 12: […] Cys 1eq, 0.2 mM PIC-1, sera 1:100, secondary Ab 1:4
1+: Table 11B: 10 mM GSH, 2 eq. base, 0.2 mM PIC-1, sera 1:100, secondary 1:4 | Table 11B: 20 mM GSH, 1 eq. base, 0.2 mM PIC-1, sera 1:100, secondary 1:4 | Table 12: 5 mM Cys 1eq, 0.2 mM PIC-1, sera 1:4, no secondary Ab
2+: Table 11B: 5 mM GSH, 2 eq. base, 0.2 mM PIC-1, sera 1:100, secondary 1:4 | Table 11B: 10 mM GSH, 1 eq. base, 0.2 mM PIC-1, sera 1:100, secondary 1:4 | Table 12: […] Cys 1eq, 0.2 mM PIC-1, sera 1:4, no secondary Ab
3+: Table 11B: 2 mM GSH, 2 eq. base, 0.2 mM PIC-1, sera 1:100, secondary 1:4 | Table 11B: 2 mM GSH, no added base, 0.2 mM PIC-1, sera 1:100, secondary 1:4 | Table 11B: 5 mM GSH, 1 eq. base, 0.2 mM PIC-1, sera 1:100, secondary 1:4 | Table 11B: 20 mM GSH, no added base, 0.2 mM PIC-1, sera 1:100, secondary 1:4 | Table 12: 2 mM acidic GSH, 0.2 mM PIC-1, sera 1:4, no secondary Ab | Table 12: 10 mM Cys 1eq, 0.2 mM PIC-1, sera 1:4, secondary Ab 1:4 | Table 12: 20 mM GSH 2eq, 0.2 mM PIC-1, sera 1:4, secondary Ab 1:4
4+: Table 11A samples, rabbit sera 1:4, all samples | Table 11B: 2 mM GSH, 1 eq. base, 0.2 mM PIC-1, sera 1:100, secondary 1:4 | Table 12: 2 mM acidic GSH, 0.2 mM PIC-1, sera 1:4, secondary Ab 1:4 | Table 12: 5 mM Cys 1eq, 0.2 mM PIC-1, sera 1:4, secondary Ab 1:4 | Table 12: […] Cys 1eq, 0.2 mM PIC-1, sera 1:4, secondary Ab 1:4 | Table 13: 0.2 mM PIC-1 no quencher, blood sample 1, sera 1:4 | Table 13: 0.2 mM PIC-1 no quencher, blood sample 1, sera 1:100 | Table 13: 0.2 mM PIC-1 no quencher, blood sample 2, sera 1:4 | Table 13: 0.2 mM PIC-1 no quencher, blood sample 2, sera 1:100 | Table 13: 2 mM acidic GSH, 0.2 mM PIC-1, blood sample 1, sera 1:4 | Table 13: 2 mM acidic GSH, 0.2 mM PIC-1, blood sample 1, sera 1:100 | Table 13: 2 mM acidic GSH, 0.2 mM PIC-1, blood sample 2, sera 1:4 | Table 13: 2 mM acidic GSH, 0.2 mM PIC-1, blood sample 2, sera 1:100
0: Table 11B: 20 mM GSH, 2 eq. base, 0.2 mM PIC-1, sera 1:100, secondary 1:4 | Table 12: 2 mM acidic GSH, 0.2 mM PIC-1, sera 1:100, no secondary Ab | Table 12: 5 mM Cys 1eq, 0.2 mM PIC-1, sera 1:100, no secondary Ab | Table 12: 10 mM Cys 1eq, 0.2 mM PIC-1, sera 1:4, no secondary Ab | Table 12: 10 mM Cys 1eq, 0.2 mM PIC-1, sera 1:100, no secondary Ab | Table 12: 10 mM Cys 1eq, 0.2 mM PIC-1, sera 1:100, secondary Ab 1:4 | Table 12: 15 mM Cys 1eq, 0.2 mM PIC-1, sera 1:4, no secondary Ab | Table 12: 15 mM Cys 1eq, 0.2 mM PIC-1, sera 1:100, no secondary Ab | Table 12: 15 mM Cys 1eq, 0.2 mM PIC-1, sera 1:100, secondary Ab 1:4 | Table 12: 20 mM Cys 1eq, 0.2 mM PIC-1, sera 1:4, no secondary Ab | Table 12: 20 mM Cys 1eq, 0.2 mM PIC-1, sera 1:4, secondary Ab 1:4 | Table 12: 20 mM Cys 1eq, 0.2 mM PIC-1, sera 1:100, no secondary Ab | Table 12: 20 mM Cys 1eq, 0.2 mM PIC-1, sera 1:100, secondary Ab 1:4 | Table 12: 20 mM GSH 2eq, 0.2 mM PIC-1, sera 1:4, no secondary Ab | Table 12: 20 mM GSH 2eq, 0.2 mM PIC-1, sera 1:100, no secondary Ab | Table 12: 20 mM GSH 2eq, 0.2 mM PIC-1, sera 1:100, secondary Ab 1:4 | Table 12: […] Cys 1eq, 0.2 mM PIC-1, sera 1:100, no secondary Ab
2: Table 13: 5 mM GSH 2eq/15 mM Cys 1eq, 0.2 mM PIC-1, blood sample 1, sera 1:4
1*: Table 12: 5 mM Cys 1eq, 0.2 mM PIC-1, sera 1:100, secondary Ab 1:4 | Table 12: 15 mM Cys 1eq, 0.2 mM PIC-1, sera 1:4, secondary Ab 1:4
3+/MX*: Table 11B: 5 mM GSH, no added base, 0.2 mM PIC-1, sera 1:100, secondary 1:4 | Table 11B: 10 mM GSH, no added base, 0.2 mM PIC-1, sera 1:100, secondary 1:4
4: Table 12: 2 mM acidic GSH, 0.2 mM PIC-1, sera 1:100, secondary Ab 1:4
